Laboratory results reported in patent US9607202B2, “Methods of generating trophectoderm and neurectoderm from human embryonic stem cells” (UNIVERSITY OF PITTSBURGH—OF THE COMMONWEALTH SYSTEM OF …, priority 2009, dated 2017).

Experiments:
Format in all cases: cell-based, human
[1] = tested on: hESCs; experiment: TSA-mediated inhibition of noggin induction of neurectoderm differentiation
Experimental: The hESCs were grown and passaged via standard collagenase methods and passaged into two ibidi plastic 8-well slides. All hESCs were plated onto feederless plates with Stempro Media for 24 hours. hESCs were 50% confluent at time of passage and split 1:5.
All plates were fed with Neural Differentiation Media (1:1 mix of D-MEM/F12 supplemented with 1×N2 and Neurobasal medium supplemented with B27 (all from Gibco/Invitrogen); supplemented with 100 ng/ml mouse recombinant noggin (R & D systems), 50 U/ml penicillin/50 μg/ml streptomycin (Invitrogen) and 2 mML-glutamine (Invitrogen)) starting at day 0 (100 ng/mL noggin in N2B/27 with media changed daily). Six wells in each of two plates was treated with TSA (0-25 nM daily beginning 24 hours s/p plating hESC
Colonies were stained with HDACI and Nestin. These proteins co-stained in a peri-nuclear filamentous pattern consistent with previous Nestin distribution. Pax6 expression was negative.

[2] = tested on: hESCs; experiment: HDAC inhibition with TSA on BMP4-induced hESC differentiation in MIM
Excerpt: Though not TE-selective, BMP4 supplementation to MIM was the most robust protocol for hESC differentiation to multiple lineages. To test whether or not TSA caused lineage specific inhibition, this protocol was used to assess HDAC inhibition on hESC differentiation to TE, ME or ExE. […] Thus HDAC inhibition delayed BMP4-induced hESC differentiation in the short-term, without altering lineage selection
96-well Microplates were scanned using the 5 or 10× objective on the ArrayScan V Automated image analysis was performed using the Compartmental Analysis BioApplication using Hoechst for identification of nuclei and various transcription factor antibodies (Table 2). Nuclear-specific fluorescence intensity was determined from approximately 300 single cells per well from 3-6 independent wells to produce a well-average nuclear intensity for each measurement Mean and standard deviation were calculated from multiple wells. Fold change of the mean intensities were normalized against matched unstimulated external controls, usually the pluripotent condition, to divide out differences due to efficiency of antibody-antigen binding and chromophore quantum yield. […] Select conditions are additionally compared in bar graph format to show standard deviations and T-tests.
Colony morphology was quantified by statistical multiresolution analysis of image texture (Mangoubi et al., 2007; Sammak et al., 2008). Image texture is a mathematical measure of the size and sharpness of objects in the image, which is illustrated in one dimension by an intensity line profile (FIG. 10). […] Therefore, we employ texture analysis as an integrated measure of colony morphology. Texture was measured using wavelet analysis (Do and Vetterli, 2002), a generalization of Fourier analysis, to decompose colony texture in phase contrast images (4× objective, Nikon TMS microscope), producing a joint probability density function for the wavelet coefficients from various scales. Different culture conditions can be distinguished as belonging to distinct classes. Each class is thus represented by a probability density function, and quantitative comparative features for classifying and statistically distinguishing colony textures are extracted from the density functions. One such feature is the Kullback-Leibler (KL) distance (Do and Vetterli, 2002). […] Specifically the KL distance between a pair of colonies from the same class is shorter than a pair from different classes.

[3] = tested on: hESC; experiment: TSA toxicity in hESC
[4] = tested on: pluripotent hESC, line H7; experiment: TSA or HDAC siRNA on pluripotent hESC in mTeSR: developmental and epigenetic markers (Arrayscan); details: TSA 0.5, 1.0 and 2.0 nM for 2 days
Experimental: In all panels of FIG. 11, pluripotent hESC, line H7, were cultured in mTeSR media were plated in 96 well plates, fixed and immunostained for developmental and epigenetic markers, and the intensity was measured using the Thermo Fisher Arrayscan. 300 cells per well, 3 wells per condition were measured and standard deviations (error bars) and T Tests were evaluated. […] Anti-HDAC3 antibodies confirms that siRNA directed against HDAC3, but not HDAC1, HDAC2, or control knocked down the concentration of HDAC3 (P<0.05, data not background subtracted). […] This protein changes colony texture by producing smooth, homogeneous colonies. […] This marker is selective for high cells with high levels of pluripotency.

[5] = 2 nM TSA in MIM plus BMP4, 48 hours, relative to BMP4 alone

**Q.** `CC(/C=C/C(=O)NO)=C\[C@@H](C)C(=O)c1ccc(N(C)C)cc1` [TSA, trichostatin A] was tested. Which “molar sensitivity in hESC” value [1] did it give?
**A.** 1 nM

**Q.** And the “HDAC (HDAC1 expression)” value ([1]; 1.0 nM TSA)?
**A.** reduces

**Q.** And the expression of nestin ([1]; 1.0 nM TSA)?
**A.** reduces

**Q.** What about the “methylation of histone H3 on lysine 9” value ([1]; 1.0 nM TSA) of the same molecule?
**A.** reduces

**Q.** And the “effect on cell-cell adhesion and cell motility” value ([1]; 5 nM TSA, noggin differentiation media, 48 hrs)?
**A.** reduced cell-cell adhesion and increased cell motility

**Q.** And the “longer-term formation of neurectoderm” value ([1]; TSA treatment for 4 or more days)?
**A.** did not inhibit longer-term formation of neurectoderm

**Q.** What about the neurectoderm formation ([1]; TSA treatment for 2 days at the initiation of differentiation) of the same molecule?
**A.** inhibited neurectoderm formation

**Q.** And the CDX2 expression [2, 5]?
**A.** decrease

**Q.** What about the GATA6 expression [2, 5] of the same molecule?
**A.** decrease

**Q.** And the OCT4 level [2, 5]?
**A.** significant OCT4 level increase

**Q.** What about the brachyury expression [2, 5] of the same molecule?
**A.** decrease

**Q.** And the “expression of HDAC3” value ([2]; TSA added to MIM with BMP4)?
**A.** significantly reduced

**Q.** And the “methylation of histone H3K9” value ([2]; TSA added to MIM with BMP4)?
**A.** significantly reduced

**Q.** What about the “BMP4-induced epithelial transformation (colony morphology by texture analysis)” value ([2]; TSA in MIM plus BMP4, 48 hours) of the same molecule?
**A.** significantly delayed

**Q.** And the “highest concentration without toxic effects” value [3]?
**A.** 1 nM

**Q.** What about the “DNA methylation on 5'cytosine” value [4] of the same molecule?
**A.** decreased

**Q.** What about the GTCM2 [4] of the same molecule?
**A.** increased

**Q.** What about the H3K9me3 [4] of the same molecule?
**A.** decreased

**Q.** And the H3K27me3 [4]?
**A.** decreased

**Q.** What about the HDAC3 [4] of the same molecule?
**A.** significantly reduced

**Q.** What about the Nanog [4] of the same molecule?
**A.** increased

**Q.** And the “histone acetylation on H3K9” value [4]?
**A.** decreased acetylation

**Q.** What about the “increase of colony size” value [4] of the same molecule?
**A.** 2 fold

**Q.** And the “peripheral F-actin” value [4]?
**A.** increased

**Q.** What about the Oct4 ([4]; dose dependent) of the same molecule?
**A.** increased
